Assay results from PubChem BioAssay (NCI).
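Five compound concentrations were applied to cells in 96-well plates for 48 hours; endpoints were derived by simple linear interpolation of the resulting dose-response curve. At the GI50, growth is halved. Definition used: TGI = concentration required for complete inhibition of growth.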

Legend:
Assay in all cases: inhibition of tumour cell growth, NCI panel, 48 h
OVCAR-3 ovarian = tested on: OVCAR-3 ovarian
TK-10 renal = tested on: TK-10 renal
MOLT-4 leukemia = tested on: MOLT-4 leukemia
COLO 205 colon = tested on: COLO 205 colon
RXF 393 renal = tested on: RXF 393 renal
SW-620 colon = tested on: SW-620 colon
SNB-19 CNS = tested on: SNB-19 CNS
BT-549 breast = tested on: BT-549 breast
T-47D breast = tested on: T-47D breast
NCI/ADR-RES ovarian = tested on: NCI/ADR-RES ovarian

| SMILES | TGI (OVCAR-3 ovarian) [µM] | TGI (TK-10 renal) [µM] | TGI (MOLT-4 leukemia) [µM] | TGI (COLO 205 colon) [µM] | TGI (RXF 393 renal) [µM] | TGI (SW-620 colon) [µM] | TGI (SNB-19 CNS) [µM] | GI50 (OVCAR-3 ovarian) [µM] | GI50 (TK-10 renal) [µM] | GI50 (MOLT-4 leukemia) [µM] | GI50 (SNB-19 CNS) [µM] | GI50 (BT-549 breast) [µM] | TGI (BT-549 breast) [µM] | GI50 (COLO 205 colon) [µM] | GI50 (T-47D breast) [µM] | TGI (T-47D breast) [µM] | GI50 (SW-620 colon) [µM] | TGI (NCI/ADR-RES ovarian) [µM] | GI50 (NCI/ADR-RES ovarian) [µM] | GI50 (RXF 393 renal) [µM] |
| --- | --- | --- | --- | --- | --- | --- | --- | --- | --- | --- | --- | --- | --- | --- | --- | --- | --- | --- | --- | --- |
| O=C(Nc1ccccc1)O/N=C1/CCCC/C1=C\c1ccccc1 | 28.5 | 31.7 | 26.5 | 28.2 | 32 | 29.9 |  |  |  |  |  |  |  |  |  |  |  |  |  |  |
| Nc1ccc(CCN2CCN(c3cccc(C(F)(F)F)c3)CC2)cc1 | > 100 | > 100 | 89.7 | > 100 | > 100 |  | > 100 |  |  |  |  |  |  |  |  |  |  |  |  |  |
| N#Cc1c2ccccc2c2nnc3cc(C(F)(F)F)ccc3n12 | > 100 | > 100 | > 100 | > 100 |  | > 100 | > 100 | 79.9 | 99.8 | 34.7 | > 100 | 57.2 | > 100 | 37.4 | > 100 | > 100 | > 100 |  |  |  |
| CCOC(=O)c1[nH]c2cccc3c2c1CC(Br)C3=O (stereo not given) | 26.2 | 28.1 | 6.33 | 27.2 |  | 5.41 | 30.7 |  |  |  |  |  | 32.1 |  |  | 40.9 |  | 30.3 |  |  |
| O=C(c1ccccc1)c1ccc2cccc(O)c2n1 | > 100 | > 100 | 70.9 | > 100 | 69 | 32.4 | > 100 |  |  |  |  |  |  |  |  |  |  |  |  |  |
| COC(=O)C1Cc2c(n(C)c3ccccc23)C(c2ccccc2)N1 (stereo not given) | > 100 | > 100 | > 100 | > 100 |  | > 100 | > 100 |  |  |  |  |  |  |  |  |  |  |  |  |  |
| NC(=O)c1csc(C2O[C@@H](COP(=O)(O)OP(=O)(O)OC[C@H]3OC(n4cnc5c(N)ncnc54)[C@H](O)[C@@H]3O)[C@H](O)[C@@H]2O)n1 (stereo not given in full) | > 100 | > 100 | > 100 | > 100 |  | > 100 | > 100 |  |  |  |  |  |  |  |  |  |  |  |  |  |
| CC(C)(C)C(=O)Nc1ccccc1Br | > 100 | > 100 | > 100 | > 100 | > 100 | > 100 | > 100 |  |  |  |  |  |  |  |  |  |  |  |  |  |
| COc1cc(/C=C2\CC(C)CC3C2=NN(c2ccccc2)C3c2cc(OC)c(OC)c(OC)c2)cc(OC)c1OC (stereo not given) | > 100 | 93.3 | > 100 | > 100 |  | 22.5 | > 100 | 14.1 | 24.3 | 13 | 21.7 | 10.1 | 39.9 | 17.5 | 4.07 | 31.7 | 10.7 | > 100 | 12.1 |  |
| COC1CCC2C(=O)CCCC2O1 (stereo not given) | > 100 | > 100 | > 100 | > 100 | > 100 | > 100 | > 100 |  |  |  |  |  |  |  |  |  |  |  |  |  |
| COc1ccc(-c2nc3sccn3c2/C=C/C(=O)c2cc(OC)c(OC)c(OC)c2)cc1OC | 5.71 | > 100 | 6.47 | 5.98 |  |  | 6.3 | 2.18 | 4.8 | 2.07 | 2.45 | 2.43 | 7.95 | 2.41 | 1.72 | 5.83 |  | 5.98 | 2.27 |  |
| O=C(Nc1cccc(C2=NCCN2)c1)c1ccc(OCCCOc2ccc(C(=O)Nc3cccc(C4=NCCN4)c3)cc2)cc1 |  | 35.3 | > 100 |  | > 100 |  | > 100 |  | 13.2 | 3.86 | 2.69 |  |  |  |  |  |  | > 100 | 46.2 | 5.78 |
| COC(=O)C/C(C)=C/[C@@H](O)[C@H]1O[C@@H]2CC/C(Cl)=C/C/C=C(/C)[C@H](OC(C)=O)CC(=O)O[C@@H]1C2 |  | 1.32 | 19.8 | 7.51 | 9.23 | > 25 | 12.7 |  | 0.489 | 6.15 | 2.28 | 1.89 | 7.73 | 1.72 |  |  | 19.1 | > 25 | 9.91 | 2.34 |
| CC1=C(C(=O)Nc2ccc(F)c(Cl)c2)C(c2cccc(O)c2)NC(=S)N1 (stereo not given) | > 50 | > 50 |  | > 50 | 30.5 | > 50 | > 50 | 17.9 | > 50 |  | > 50 | 12.1 | 36.8 | 22.2 | > 50 | > 50 | 20.6 | > 50 | > 50 | 14 |
| Clc1ccc(Nc2ccnc(NCCNc3ccnc4cc(Cl)ccc34)n2)cc1 | 2.69 | 3.17 | 3.55 | 2.92 |  | 2.64 | 3.07 | 1.36 | 1.76 | 1.49 | 1.54 | 1.5 | 3.2 | 1.31 | 1.15 | 3.05 | 1.14 | 3.51 | 1.61 |  |
| O=C1NC(=O)C2=C1CCC2O (stereo not given) | > 100 | > 100 | > 100 | > 100 | > 100 | > 100 | > 100 |  |  |  |  |  |  |  |  | > 100 |  | > 100 |  |  |
| O=C1C(Cl)=C(Oc2ccccc2)C(=O)c2ccccc21 | 3.42 | 3.41 | 30.7 | 3.24 | 6.84 | 3.57 | 17.4 | 1.83 | 1.87 | 4.09 | 4.11 | 2.86 | 9.3 | 1.68 |  |  | 1.81 | 37.9 | 7.75 | 2.75 |
| CCCCCCC(O)C/C=C/CCCCCC/C(C(=O)OC)=C(/O)C(=O)OCC (stereo not given) | > 100 | > 100 | > 100 | > 100 |  | > 100 | > 100 |  |  |  |  |  |  |  |  |  |  |  |  |  |
| CN(C)CCN1N=Nc2cccc3cccc1c23 | > 100 | > 100 | > 87.3 | > 100 |  | > 53.6 | > 100 |  |  |  |  |  |  |  |  |  |  |  |  |  |
